These results are taken from patent US20030040105A1, “Microfluidic micromixer” (priority 1999, published 2003).

In this assay the target is T1, streptavidin coated bead bearing fluorescein biotin (Streptomyces avidinii, UniProt P22629).
T1 construct: purchased Spherotech Inc., Libertyville, Ill
The assay can be described thus: unquenching of fluorescein biotin streptavidin beads by native biotin, flow cytometry. It is filed as binding. The conditions noted are these: streptavidin beads with quenched fluorescein biotin, typical. A general note: In flow cytometry, cells or beads pass a laser one at a time.

T1 sequence (P22629 25-183): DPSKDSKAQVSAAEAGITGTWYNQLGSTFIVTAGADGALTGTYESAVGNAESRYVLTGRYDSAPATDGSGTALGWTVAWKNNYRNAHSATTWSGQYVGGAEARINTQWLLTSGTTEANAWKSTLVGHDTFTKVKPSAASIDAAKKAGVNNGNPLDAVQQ
Description: Data are plotted as mean channel fluorescence (MCF) versus time for several concentrations of biotin. The binding of fluorescein biotin to streptavidin-coated beads shown in FIG. 12A is characterized by the quenching of fluorescence of particles bound relative to free fluorescein biotin. The quenching is relieved when free biotin is added. The base line fluorescence indicated by the constant signal on the right signifies the “ostrich quenched” fluorescein biotin beads. Typically, this type of quenching, “ostrich quenching,” occurs when the fluorescein moiety associates with the streptavidin-binding pocket adjacent to the biotin-moiety bearing site FIG. 12A. […] The subsequent increase in fluorescence signal on right is caused by homogeneously mixing native biotin with the microspheres causing the unquenching of FITC-biotin in the streptavidin receptor pocket on the bead surface.
A 200 μL volume suspension of streptavidin coated beads (3.7×10^7 beads/mL) was diluted to 4 mL in TRIS buffer, (100 mM Tris HCl, 150 mM NaCl, 0.1% BSA, 0.02% sodium azide, pH 7.5). Subsequently, 1.0 μL of 8.7×10^−6 M fluorescein biotin solution was added to the beads. The sample was continuously agitated for 20 minutes, then centrifuged and resuspended in 6.0 mL of buffer. The final bead suspension comprised of ˜1.1 million beads/mL with a million fluorescein biotin molecules per bead. […]

Take `O=C(O)CCCC[C@@H]1SC[C@@H]2NC(=O)N[C@@H]21` [native biotin, Biotin]: the “increase in fluorescence intensity after mixing with excess native biotin” value is “eight-fold increase”.
